Assay results as given in patent USRE33024E, “Bronchodilating 8-hydroxy-5-(1R)-1-hydroxy-2-(N-((1R)-2-(p-methoxyphenyl)-1-methylethyl) -amino)ethyl) carbostyril and intermediates thereof” (Tanabe Seiyaku Co. Ltd., priority 1983, dated 1989).
Counter-ions that a name gives are not always drawn.

Columns and labels:
[1] = tested on: antigen-induced bronchoconstriction; test: Inhibitory effect on antigen-induced bronchoconstriction (Konzett-Rossler method); assay type: in vivo, guinea pig (Male Hartley); conditions: Cavia porcellus, iv; i.v. one minute before ovalbumin challenge (30 μg/kg, i.v.); passively sensitized guinea pigs
Protocol: Inhibitory effect on antigen-induced bronchoconstriction
Male Hartley guinea pigs (body weight: 280-520 g) were passively sensitized by intravenous injection of rabbit antiserum against ovalbumin (0.2 ml/100 g of body weight, PCA titer: ×1000), 24 hours later, the animals were anesthetized with α-chloralose (120 mg/kg, i.v.) and immobilized with gallamine triethiodide (5 mg/kg, i.v.) under artificial respiration. Lung volume changes were measured as overflow of air from the lung by the Konzett-Rossler method (cf. Arch. Exp. Pathol. Pharmakol., 195, 71 (1940)). The test compound was administered intravenously to the animals one minute before said animals were challenged with ovalbumin (30 μg/kg, i.v.). The ED50 (i.e., the dose of the test compound which is necessary to produce 50% reduction of antigen-induced bronchoconstruction) was estimated from the dose-response curve.

[2] = in vivo; conditions: mouse, iv
Protocol: (§1) A test compound was dissolved in 5% glucose solution, and the test compound solution (0.2 ml/10 g of body weight) was administered intravenously to Male ddY strain mice (body weight: 25-28 g). The LD50 of the test compound was estimated by the Up and Down method.

[3] = tested on: Male ddY strain mice; test: Acute toxicity (Up and Down method); conditions: mouse, in vivo
Protocol: as §1

[4] = tested on: isolated tracheal muscle preparations of Male Hartley guinea pigs; test: Bronchodilating activity: relaxation of histamine-induced contraction of isolated tracheal muscle preparations (Magnus' method); set-up: species or system guinea pig (Male Hartley)
Protocol: Isolated tracheal muscle preparations of Male Hartley guinea pigs (body weight: 430-645 g) were used to estimate the bronchodilating activity of a test compound according to Magnus' method. The preparation was suspended in an organ bath filled with 20 ml of Tyrode's solution (37° C.), and said solution was continuously bubbled with air. Histamine 2HCl was added to the bath (final concentration; 1×10^-5 g/ml) and the test compound was added thereto about 15 minutes after the addition of histamine 2HCl. Tension changes in the tracheal smooth muscle were recorded isometrically with a force-displacement transducer. Molar conentration of the test compound which produced 50% relaxation of the histamine-induced tracheal contraction were estimated from the concentration-response curve, and the potency ratio of the test compound to Isoproterenol was calculated therefrom.

Compound	ED50 [1] [mg/kg]	LD50 [2] [mg/kg]	toxicity (in words) [3]	Potency ratio (to Isoproterenol) ([4]; from molar concentration giving 50% relaxation of histamine-induced tracheal contraction, histamine 2HCl 1×10^-5 g/ml, Tyrode's solution 37° C.)	selectivity ratio [2]	bronchodilating activity, times as strong as Isoproterenol ([4]; isolated tracheal chains of guinea pigs, versus Isoproterenol) [times]	bronchodilating activity, times as strong as procaterol ([4]; isolated tracheal chains of guinea pigs, versus procaterol)
COc1ccc(C[C@@H](C)NC[C@H](O)c2ccc(O)c3[nH]c(=O)ccc23)cc1 (relative stereo) [Comp. No. 2, 8-hydroxy-5-{1-hydroxy-2-[N-(2-(p-methoxyphenyl)-1-methylethyl)amino]ethyl}carbotyril (α-isomer) hydrochloride]	0.00018	91.3					
COc1ccc(CC(C)NCC(O)c2ccc(O)c3[nH]c(=O)ccc23)cc1 (stereo not shown) [compound (I)]			considerably low				
CCC(NC(C)C)C(O)c1ccc(O)c2[nH]c(=O)ccc12 (stereo not shown) [Procaterol, 8-hydroxy-5-[1-hydroxy-2-(isopropylamino)butyl]carbostyril hydrochloride hemihydrate, reference compound]	0.00064	70.3		17	110000		
COc1ccc(C[C@@H](C)NC[C@H](O)c2ccc(O)c3[nH]c(=O)ccc23)cc1.Cl [Comp. No. 1, 8-hydroxy-5-{(1R)-1-hydroxy-2-[N-((1R)-2-(p-methoxyphenyl)-1-methylethyl)amino]ethyl}carbostyril hydrochloride]		84.6				~100	about 10 times
